Assays:
[1] = tested on: women with severe primary dysmenorrhea; experiment: Transdermal administration of MN-221 in women with severe primary dysmenorrhea (double-blind cross-over trial); format: in vivo, human
Method: The study is conducted in women, aged 15-39 years. Some of them are nulliparous and some are parous. All have regular 25-32 day cycles. They have all suffered from severe dysmenorrhea for more than one year. All the women are incapacitated for 1-2 days every month. During the first menstrual day they have continuous low abdominal pain of varying severity and in some women it is accompanied by nausea and vomiting.
All the women are informed and give their consent before the trial is started. The study is performed as a double-blind cross-over trial in which the patients are given, in random order, MN-221 transdermal patches during one menstrual period and placebo patches of identical appearance during the next period. The patients return to the hospital after the end of each menstrual flow and their dysmenorrheic symptoms are assessed. The therapeutic effect is also assessed and graded as none, weak, and moderate, over to good and very good. All women in the study have signs of ovulation—mid-cycle temperature rise—in the menstrual cycle preceding the trial. The MN-221 or the placebo is given as a five day transdermal patch during menstrual pains. MN-221 is administered as a dose in a range of about 0.02 mg/kg to 1.5 mg/Kg. The volume of the menstrual blood loss is calculated from the hemoglobin content of all the sanitary towels used by the patient and delivered to the department.

[2] = tested on: uterine muscle isolated from pregnant rats; experiment: Spontaneous contractions of uterine muscle isolated from pregnant rats (organ bath); format: cell-based; settings: pregnant rat uterine muscle, mean ± standard error, 10 samples
Method: The experimental operation of this study was as reported by T. Kawarabayashi et al.^1 After each SD-strain rat on Day 21 of pregnancy were exsanguinated to death, the uterus was isolated to prepare up to 8 myometrial strips (about 4 mm×10 mm) in the direction of the longitudinal muscle, with the adhesion to the placenta being avoided.
Each myometrial strip was suspended in an organ bath containing 10 mL of a Locke-Ringer solution at 37° C. (aerated with 95% O2+5% CO2 gas) with a load of about 1.0 g. After the amplitude and frequency of the muscular spontaneous contractions became stable, distilled water was added. Five minutes later, the test, control, or positive control substance was added cumulatively with intervals of 5 minutes. The myometrial contractile force was delivered to a strain pressure amplifier through a force displacement transducer and recorded on a Rectigraph.
Considering the sum of the uterine contraction during 5 minutes after the addition of distilled water as 100%, the response rate to each concentration of the test, control, or positive control substance was calculated from the sum of the uterine contraction after each was added. Variable points (peaks) with amplitude (tension) of 0.2 g or lower were excluded from analysis. Samples showing any of the following events were not used for the study or excluded from analysis.
Microsoft® Excel 2000 (Microsoft Corp.) was used to sum up and analyze data and prepare tables and figures. Using a concentration-response curve obtained for each sample (X axis: log value of the concentration of the drug added, Y axis: response rate), a negative log value (pD2) of the concentration that inhibited the uterine contraction by 50% (EC50) was calculated from a straight line that connects the 2 concentrations above and below 50%, and converted to EC50.

[3] = tested on: uterine muscle isolated from pregnant rats; experiment: Oxytocin-induced contraction of uterine muscle isolated from pregnant rats; format: cell-based, rat; settings: Rattus norvegicus, contraction induced with 1 mU/mL of oxytocin, mean ± standard error of 10 samples
Method: After SD-strain rats on Day 17 of pregnancy were exsanguinated to death, the uterus was isolated to prepare up to 8 myometrial strips (about 4 mm×10 mm) per animal in the direction of the longitudinal muscle while avoiding the adhesion to the placenta. Each strip was suspended in an organ bath containing 10 mL of a modified Locke-Ringer solution at […] (aerated with 95% O2+5% CO2 gas) with a load of about 1.0 g. After the suspended sample became stable for static tension, 5 μg/mL of PG F2α or 1 mU/mL of oxytocin was added to induce contraction. After the sample was allowed to stand for at least 30 minutes to confirm stable rhythmic contraction for frequency and amplitude, the test, control, or positive control substance solution was added cumulatively at intervals of 5 minutes. After the treatment was completed, 1×10^−5 mol/L of forskolin was added to obtain maximal relaxation. The contractile force of the uterine sample was delivered via a force displacement transducer to a strain pressure amplifier and recorded on a Rectigraph.
Considering the sum of the uterine contraction for 5 minutes before treatment as 100%, the response rate to each concentration of the test, control, or positive control substance solution was calculated from the sum of uterine contraction after treatment for both PG F2α and oxytocin induced contraction. Then, the response rates obtained were used to prepare a concentration-response curve for each sample. The maximum relaxation obtained by adding forskolin was considered as a baseline. Variable points (peaks) with amplitude (tension) of […] or lower were excluded from analysis. Samples showing any of the following events were not used for the study or excluded from analysis.
Microsoft® Excel 2000 (Microsoft Corp.) was used to sum up and calculate data and prepare tables and figures. Using a concentration-response curve prepared for each sample (X axis: log value of the concentration of the substance added, Y axis: response rate), a negative log value (pEC50) of the concentration that inhibited the uterine contraction by 50% (EC50) was calculated from a straight line connecting the 2 concentrations just above and below 50%, and then converted to EC50 (unit: mol/L).

pregnant sheep = experiment: Oxytocin-induced uterine contractions, cardiovascular system and general metabolism of pregnant sheep and their fetuses; format: in vivo
Method: MN-221 (0.001, 0.003, 0.01, 0.03, 0.1 and 0.3 μg/kg/min) was weighed and dissolved in physiological saline. At 123-125 days of pregnancy, sheep were infused with oxytocin (1.0 mU/kg/min) to induce uterine contractions. One hour later, MN-221 was infused for 3 consecutive hours beginning at a dose of 0.001 μg/kg/min for 30 min and increasing stepwise every 30 min to 0.3 μg/kg/min in the MN-221 group (N=4). The control received saline instead (N=4).

[4] = tested on: heart rate and mean blood pressure of dam; experiment: Heart rate and mean blood pressure of dam in anesthetized pregnant rats; format: in vivo, rat; settings: intravenous cumulative dosing
Method: Rats were anesthetized with urethane, and experiments were conducted based on balloon method. Uterine activity and mean blood pressure of dam were led to a pressure amplifier via a pressure transducer. As for heart rate, pulse waves were led to tachometer. Recti-graphs were used for recording. The test substance, control substance, or positive control substance was administered intravenously and cumulatively every 15 minutes, while doses were increased gradually.

**Q.** Which results are given for CN(C)C(=O)COc1ccc2c(c1)C[C@@H](NC[C@H](O)c1ccc(O)c(CCO)c1)CC2 [MN-221, (−)-bis(2-{[(2S)-2-({(2R)-2-hydroxy-2-[4-hydroxy-3-(2-hydroxyethyl)phenyl]ethyl}amino)-1,2,3,4-tetrahydronaphthalen-7-yl]oxy}-N,N-dimethyl-acetamide) monosulfate]?
**A.** therapeutic response (relief) compared to placebo ([1]; five day transdermal patch, about 0.02 mg/kg to 1.5 mg/Kg): positive response with relief in women as compared to placebo; increase in heart rate, blood pressure, palpitations, tremors, and/or flushes ([1]; transdermal patch, all subjects): substantially no increase in heart rate, blood pressure, palpitations, tremors, and/or flushes; EC50 ([2]; read-out: EC50): 1.01 ± 0.27 nM; EC50 ([2]; read-out: pD2 (converted)): 0.692 nM; EC50 ([3]; read-out: EC50): 2.25 ± 0.44 nM; EC50 ([3]; read-out: pEC50 (converted)): 1.86 nM; maternal heart rate, diastolic and mean blood pressure, base excess, blood K+, blood lactate, plasma glucose, insulin, non-esterified fatty acid levels, fetal plasma glucose and insulin levels (pregnant sheep; MN-221 group versus control (saline) group): Significant differences between the two groups; suppression of oxytocin-induced uterine contractions (pregnant sheep; at doses over 0.03 μg/kg/min, infusion, oxytocin 1.0 mU/kg/min, pregnant sheep): more than 90%; cardiovascular and metabolic side effects (pregnant sheep; pregnant sheep and fetuses, stepwise infusion 0.001 to 0.3 μg/kg/min): reduced cardiovascular and metabolic side effects; decrease in mean blood pressure of dam [4]: significantly small; effect to increase heart rate of dam [4]: significantly weaker than that of any of other agents

— US20120035265A1, “COMPOSITIONS, METHODS, AND DEVICES FOR THE TREATMENT OF DYSMENORRHEA” (MediciNova, Inc., priority 2010, published 2012)
